Test results taken from publication PMC5218480 (PLoS ONE, 2017).

Test system: MV-4-11 cells
Assay: Gene expression microarray analysis (Affymetrix PrimeView) and GSEA
Type: cell-based, human
Set-up: RFU PODN (11730768_x_at) / Fold change /veh PODN (11730768_x_at) / RFU LINC00158 (11744669_a_at) / Fold change /veh LINC00158 (11744669_a_at) / RFU DUSP10 (11751237_a_at) / Fold change /veh DUSP10 (11751237_a_at) / RFU ID3 (11757404_x_at) / Fold change /veh ID3 (11757404_x_at) / RFU PLEKHG5 (11737974_s_at) / Fold change /veh PLEKHG5 (11737974_s_at) / RFU LRRC4B (11730491_at) / Fold change /veh LRRC4B (11730491_at) / RFU GIMAP4 (11747438_a_at) / Fold change /veh GIMAP4 (11747438_a_at) / RFU KRT8 (11758183_x_at) / Fold change /veh KRT8 (11758183_x_at) / RFU CNN1 (11734310_a_at) / Fold change /veh CNN1 (11734310_a_at) / RFU VPS37D (11726825_at) / Fold change /veh VPS37D (11726825_at) / RFU C10orf10 (11716522_x_at) / Fold change /veh C10orf10 (11716522_x_at) / RFU KIR2DL2 /// KIR2DL4 /// KIR2DL5A /// KIR2DL5B /// KIR2DS1 /// KIR2DS2 /// KIR2DS3 /// KIR2DS4 /// KIR3DL3 /// KIR3DL3 /// KIR3DS1 (11738374_at) / Fold change /veh KIR2DL2 /// KIR2DL4 /// KIR2DL5A /// KIR2DL5B /// KIR2DS1 /// KIR2DS2 /// KIR2DS3 /// KIR2DS4 /// KIR3DL3 /// KIR3DL3 /// KIR3DS1 (11738374_at) / RFU C1QL1 (11718748_at) / Fold change /veh C1QL1 (11718748_at) / RFU TMPRSS4 (11747572_a_at) / Fold change /veh TMPRSS4 (11747572_a_at) / RFU HAMP (11756126_x_at) / Fold change /veh HAMP (11756126_x_at) / RFU RNFT2 (11725882_a_at) / Fold change /veh RNFT2 (11725882_a_at) / RFU NR4A2 (11747474_a_at) / Fold change /veh NR4A2 (11747474_a_at) / RFU ABCC12 (11746883_a_at) / Fold change /veh ABCC12 (11746883_a_at) / RFU TMEM136 (11760407_x_at) / Fold change /veh TMEM136 (11760407_x_at) / RFU CLDN22 /// WWC2 (11732394_at) / Fold change /veh CLDN22 /// WWC2 (11732394_at) / RFU HLA-DPB1 (11760878_x_at) / Fold change /veh HLA-DPB1 (11760878_x_at) / RFU SPINT1 (11716480_a_at) / Fold change /veh SPINT1 (11716480_a_at) / RFU GAP43 (11754022_s_at) / Fold change /veh GAP43 (11754022_s_at) / RFU A4GNT (11735810_at) / Fold change /veh A4GNT (11735810_at) / RFU PRB3 (11715151_x_at) / Fold change /veh PRB3 (11715151_x_at) / RFU TUBB4B (11761932_at) / Fold change /veh TUBB4B (11761932_at) / RFU CAPN14 (11732068_a_at) / Fold change /veh CAPN14 (11732068_a_at) / RFU TMCC2 (11721928_a_at) / Fold change /veh TMCC2 (11721928_a_at) / RFU IRGQ (11745062_a_at) / Fold change /veh IRGQ (11745062_a_at) / RFU FAM174B (11720279_a_at) / Fold change /veh FAM174B (11720279_a_at) / RFU TMPRSS4 (11748680_a_at) / Fold change /veh TMPRSS4 (11748680_a_at) / RFU FAM212B (11763350_a_at) / Fold change /veh FAM212B (11763350_a_at) / RFU PLEKHG5 (11743358_a_at) / Fold change /veh PLEKHG5 (11743358_a_at) / RFU ZSCAN30 (11745921_a_at) / Fold change /veh ZSCAN30 (11745921_a_at) / RFU CMKLR1 (11741424_a_at) / Fold change /veh CMKLR1 (11741424_a_at) / RFU LOC101060620 /// MAPK8IP1 (11723275_at) / Fold change /veh LOC101060620 /// MAPK8IP1 (11723275_at) / RFU SPTSSB (11747773_x_at) / Fold change /veh SPTSSB (11747773_x_at) / RFU PRSS12 (11739890_at) / Fold change /veh PRSS12 (11739890_at) / RFU BIN1 (11741810_x_at) / Fold change /veh BIN1 (11741810_x_at) / RFU WNT11 (11732464_a_at) / Fold change /veh WNT11 (11732464_a_at) / RFU C10orf10 (11716521_a_at) / Fold change /veh C10orf10 (11716521_a_at) / RFU C5orf56 (11738089_at) / Fold change /veh C5orf56 (11738089_at) / RFU CYB561 (11721691_x_at) / Fold change /veh CYB561 (11721691_x_at) / RFU ANKRD19P (11752326_a_at) / Fold change /veh ANKRD19P (11752326_a_at) / RFU OR2T12 /// OR2T33 /// OR2T8 (11738714_s_at) / Fold change /veh OR2T12 /// OR2T33 /// OR2T8 (11738714_s_at) / RFU VCAN (11748164_a_at) / Fold change /veh VCAN (11748164_a_at) / RFU JSRP1 (11732532_at) / Fold change /veh JSRP1 (11732532_at) / RFU KRTAP10-11 (11738290_x_at) / Fold change /veh KRTAP10-11 (11738290_x_at) / RFU MYO3A (11730013_a_at) / Fold change /veh MYO3A (11730013_a_at) / RFU EBF3 (11725865_a_at) / Fold change /veh EBF3 (11725865_a_at) / RFU CAMK2N1 (11719241_x_at) / Fold change /veh CAMK2N1 (11719241_x_at) / RFU C5orf56 (11738088_a_at) / Fold change /veh C5orf56 (11738088_a_at) / RFU OLFML3 (11715873_a_at) / Fold change /veh OLFML3 (11715873_a_at) / RFU LOC100653217 /// NTM (11731650_a_at) / Fold change /veh LOC100653217 /// NTM (11731650_a_at) / RFU MAPK11 (11762145_a_at) / Fold change /veh MAPK11 (11762145_a_at) / RFU FIZ1 (11724087_x_at) / Fold change /veh FIZ1 (11724087_x_at) / RFU OASL (11726364_x_at) / Fold change /veh OASL (11726364_x_at) / RFU SOX15 (11748057_x_at) / Fold change /veh SOX15 (11748057_x_at) / RFU CD79A (11719716_a_at) / Fold change /veh CD79A (11719716_a_at) / RFU HIST1H1D (11736915_at) / Fold change /veh HIST1H1D (11736915_at) / RFU CASKIN2 (11723855_a_at) / Fold change /veh CASKIN2 (11723855_a_at) / RFU LOC730098 (11760151_x_at) / Fold change /veh LOC730098 (11760151_x_at) / RFU OR4N2 (11742367_at) / Fold change /veh OR4N2 (11742367_at) / RFU PRRT2 (11749266_a_at) / Fold change /veh PRRT2 (11749266_a_at) / RFU SNX32 (11753110_a_at) / Fold change /veh SNX32 (11753110_a_at) / RFU CDHR5 (11726645_a_at) / Fold change /veh CDHR5 (11726645_a_at) / RFU RCAN1 (11760418_a_at) / Fold change /veh RCAN1 (11760418_a_at) / RFU FAM167A (11723789_a_at) / Fold change /veh FAM167A (11723789_a_at) / RFU FAM26E (11764081_at) / Fold change /veh FAM26E (11764081_at) / RFU ISYNA1 (11749810_s_at) / Fold change /veh ISYNA1 (11749810_s_at) / RFU ACY1 (11761880_at) / Fold change /veh ACY1 (11761880_at) / RFU 11764098_at / Fold change /veh 11764098_at / RFU SAMD14 (11745864_x_at) / Fold change /veh SAMD14 (11745864_x_at) / RFU NPB (11741838_a_at) / Fold change /veh NPB (11741838_a_at) / RFU TMPRSS6 (11731388_a_at) / Fold change /veh TMPRSS6 (11731388_a_at) / RFU KRTAP10-2 (11738614_at) / Fold change /veh KRTAP10-2 (11738614_at) / RFU ARHGAP8 /// PRR5-ARHGAP8 (11727945_x_at) / Fold change /veh ARHGAP8 /// PRR5-ARHGAP8 (11727945_x_at) / RFU KRTAP5-7 /// NADSYN1 (11734609_at) / Fold change /veh KRTAP5-7 /// NADSYN1 (11734609_at) / RFU RASL12 (11751679_a_at) / Fold change /veh RASL12 (11751679_a_at) / RFU CDKN2B (11736163_a_at) / Fold change /veh CDKN2B (11736163_a_at) / RFU PRF1 (11729649_at) / Fold change /veh PRF1 (11729649_at) / RFU, ZNF638 /// ZNF638-IT1 / Fold change vs veh, ZNF638 /// ZNF638-IT1 / RFU, PANK3 / Fold change vs veh, PANK3 / RFU, SH3YL1 / Fold change vs veh, SH3YL1 / RFU, ZEB2 / Fold change vs veh, ZEB2 / RFU, NRIP1 / Fold change vs veh, NRIP1 / RFU, PTTG1IP / Fold change vs veh, PTTG1IP / RFU, CAPN2 / Fold change vs veh, CAPN2 / RFU, MED14 / Fold change vs veh, MED14 / RFU, SNORA58 / Fold change vs veh, SNORA58 / RFU, C1orf63 / Fold change vs veh, C1orf63 / RFU, LRRFIP1 / Fold change vs veh, LRRFIP1 / RFU, NDUFAF7 / Fold change vs veh, NDUFAF7 / RFU, SLC12A2 / Fold change vs veh, SLC12A2 / RFU, IBTK / Fold change vs veh, IBTK / RFU, ESF1 / Fold change vs veh, ESF1 / Fold change vs veh, TMEM50B / RFU, TAOK1 / Fold change vs veh, TAOK1 / RFU, ACBD3 / Fold change vs veh, ACBD3 / RFU, TMA16 / Fold change vs veh, TMA16 / RFU, RWDD3 / Fold change vs veh, RWDD3 / RFU, BCAT1 / Fold change vs veh, BCAT1 / RFU, EDEM3 / Fold change vs veh, EDEM3 / RFU, TMEM33 / Fold change vs veh, TMEM33 / RFU, WDR75 / Fold change vs veh, WDR75 / RFU, AHCTF1 / Fold change vs veh, AHCTF1 / RFU, TFRC / Fold change vs veh, TFRC / RFU, ZDHHC17 / Fold change vs veh, ZDHHC17 / RFU, NOM1 / Fold change vs veh, NOM1 / RFU, ARL8B / Fold change vs veh, ARL8B / RFU, ZBTB11 / Fold change vs veh, ZBTB11 / RFU, TAMM41 / Fold change vs veh, TAMM41 / RFU, KIAA1704 /// LOC100996395 / Fold change vs veh, KIAA1704 /// LOC100996395 / RFU, ING1 / Fold change vs veh, ING1 / RFU, TRMT61B / Fold change vs veh, TRMT61B / RFU, FUBP3 / Fold change vs veh, FUBP3 / RFU, TP53 / Fold change vs veh, TP53 / RFU, TNKS2 / Fold change vs veh, TNKS2 / RFU, ZFP14 / Fold change vs veh, ZFP14 / RFU, ACTR2 / Fold change vs veh, ACTR2 / RFU, PPP3R1 / Fold change vs veh, PPP3R1 / RFU, PIK3R1 / Fold change vs veh, PIK3R1 / RFU, HNRNPA1 / Fold change vs veh, HNRNPA1 / RFU, RNF170 / Fold change vs veh, RNF170 / RFU, ZNF28 / Fold change vs veh, ZNF28 / RFU, RNGTT / Fold change vs veh, RNGTT / RFU, OGT / Fold change vs veh, OGT / RFU, BRD1 / Fold change vs veh, BRD1 / RFU, MARS / Fold change vs veh, MARS / RFU, ZNF655 / Fold change vs veh, ZNF655 / RFU, FAHD1 / Fold change vs veh, FAHD1 / RFU, BDP1 / Fold change vs veh, BDP1 / RFU, LRRCC1 / Fold change vs veh, LRRCC1 / RFU, ARID1A / Fold change vs veh, ARID1A / RFU, ZNF146 / Fold change vs veh, ZNF146 / RFU, ZNF330 / Fold change vs veh, ZNF330 / RFU, GPN3 / Fold change vs veh, GPN3 / RFU, C9orf123 / Fold change vs veh, C9orf123 / RFU, N4BP2L2 / Fold change vs veh, N4BP2L2 / RFU, ARFIP1 / Fold change vs veh, ARFIP1 / RFU, FAM179B / Fold change vs veh, FAM179B / RFU, BCL10 / Fold change vs veh, BCL10 / RFU, UHRF1BP1L / Fold change vs veh, UHRF1BP1L / RFU, BET1 / Fold change vs veh, BET1 / RFU, CNOT2 / Fold change vs veh, CNOT2 / RFU, ZNF268 / Fold change vs veh, ZNF268 / Fold change vs veh, ZNF507 / RFU, DGCR2 / Fold change vs veh, DGCR2 / RFU, WDSUB1 / Fold change vs veh, WDSUB1 / Fold change vs veh, HSP90B1 /// MIR3652 / RFU, ADSS / Fold change vs veh, ADSS / RFU, GK / Fold change vs veh, GK / RFU, ZNF148 / Fold change vs veh, ZNF148 / RFU, TAF9 / Fold change vs veh, TAF9 / RFU, SLC1A5 / Fold change vs veh, SLC1A5 / RFU, SLMO2 / Fold change vs veh, SLMO2 / RFU, ABCC4 / Fold change vs veh, ABCC4 / RFU, LOC101060439 /// RAP1B / Fold change vs veh, LOC101060439 /// RAP1B / RFU, RFX7 / Fold change vs veh, RFX7 / RFU, GTPBP10 / Fold change vs veh, GTPBP10 / RFU, CNEP1R1 / Fold change vs veh, CNEP1R1 / RFU, BIVM-ERCC5 /// ERCC5 / Fold change vs veh, BIVM-ERCC5 /// ERCC5 / RFU, ILF3 / Fold change vs veh, ILF3 / RFU 11762660_at / Fold change /veh 11762660_at / RFU VCAN (11757783_s_at) / Fold change /veh VCAN (11757783_s_at) / RFU DDX43 (11728927_at) / Fold change /veh DDX43 (11728927_at) / RFU KRT8 (11758188_x_at) / Fold change /veh KRT8 (11758188_x_at) / RFU NKD1 (11759106_at) / Fold change /veh NKD1 (11759106_at) / RFU SRD5A1 (11742802_a_at) / Fold change /veh SRD5A1 (11742802_a_at) / RFU TPSAB1 /// TPSB2 (11721975_s_at) / Fold change /veh TPSAB1 /// TPSB2 (11721975_s_at) / RFU GSTM3 (11746129_a_at) / Fold change /veh GSTM3 (11746129_a_at) / RFU IL23R (11737362_x_at) / Fold change /veh IL23R (11737362_x_at) / RFU TMEM51 (11727254_a_at) / Fold change /veh TMEM51 (11727254_a_at) / RFU PIWIL2 (11732686_x_at) / Fold change /veh PIWIL2 (11732686_x_at) / RFU ORM1 (11744905_x_at) / Fold change /veh ORM1 (11744905_x_at) / RFU CCDC152 (11743942_at) / Fold change /veh CCDC152 (11743942_at) / RFU ECM1 (11717891_a_at) / Fold change /veh ECM1 (11717891_a_at) / RFU IL23R (11748794_a_at) / Fold change /veh IL23R (11748794_a_at) / RFU TNFAIP8L3 (11732012_x_at) / Fold change /veh TNFAIP8L3 (11732012_x_at) / RFU MBOAT4 (11741988_at) / Fold change /veh MBOAT4 (11741988_at) / RFU 11764193_at / Fold change /veh 11764193_at / RFU TMEM53 (11763286_at) / Fold change /veh TMEM53 (11763286_at) / RFU MAGEB2 (11727129_at) / Fold change /veh MAGEB2 (11727129_at) / RFU TMEM200A (11744735_a_at) / Fold change /veh TMEM200A (11744735_a_at) / RFU CCDC152 (11751479_a_at) / Fold change /veh CCDC152 (11751479_a_at) / RFU FAM211A (11726209_a_at) / Fold change /veh FAM211A (11726209_a_at) / RFU RGS16 (11746705_a_at) / Fold change /veh RGS16 (11746705_a_at) / RFU VCAN (11755009_s_at) / Fold change /veh VCAN (11755009_s_at) / RFU RHOB (11743442_s_at) / Fold change /veh RHOB (11743442_s_at) / RFU RGS16 (11720943_a_at) / Fold change /veh RGS16 (11720943_a_at) / RFU RGS16 (11720944_at) / Fold change /veh RGS16 (11720944_at) / RFU, VPS4B / Fold change vs veh, VPS4B / RFU, CREB1 / Fold change vs veh, CREB1 / RFU, DNAJC13 / Fold change vs veh, DNAJC13 / RFU, GNAQ / Fold change vs veh, GNAQ / RFU, CDK5R1 / Fold change vs veh, CDK5R1 / RFU, ZRANB3 / Fold change vs veh, ZRANB3 / RFU, CUL4A / Fold change vs veh, CUL4A / RFU, CCNY / Fold change vs veh, CCNY / RFU, UFL1 / Fold change vs veh, UFL1 / RFU, COG3 / Fold change vs veh, COG3 / RFU, DIAPH2 / Fold change vs veh, DIAPH2 / RFU, SKA2 / Fold change vs veh, SKA2 / RFU, AFF3 / Fold change vs veh, AFF3 / RFU, LMF1 / Fold change vs veh, LMF1 / RFU, IPO11 / Fold change vs veh, IPO11 / RFU, DFFB / Fold change vs veh, DFFB / RFU, FOXP1 / Fold change vs veh, FOXP1 / RFU, CARD8 / Fold change vs veh, CARD8 / RFU, STRN3 / Fold change vs veh, STRN3 / RFU, ADK / Fold change vs veh, ADK / RFU, RASSF2 / Fold change vs veh, RASSF2 / RFU, WIPF1 / Fold change vs veh, WIPF1 / RFU, LARP1B / Fold change vs veh, LARP1B / RFU, RASA1 / Fold change vs veh, RASA1 / RFU, RB1 / Fold change vs veh, RB1 / RFU, PPFIA1 / Fold change vs veh, PPFIA1 / RFU, MAT2A / Fold change vs veh, MAT2A / RFU, CCT5 / Fold change vs veh, CCT5 / RFU, WDR92 / Fold change vs veh, WDR92 / RFU, CUX1 / Fold change vs veh, CUX1 / RFU, TTC7A / Fold change vs veh, TTC7A / RFU, TMEM135 / Fold change vs veh, TMEM135 / RFU, DEPTOR / Fold change vs veh, DEPTOR / RFU, CPM / Fold change vs veh, CPM / RFU, DNAJB6 / Fold change vs veh, DNAJB6 / RFU, CACNA2D3 / Fold change vs veh, CACNA2D3 / RFU, DTX4 / Fold change vs veh, DTX4 / RFU, TFCP2 / Fold change vs veh, TFCP2 / RFU, GMCL1 /// GMCL1P1 / Fold change vs veh, GMCL1 /// GMCL1P1 / RFU, AEBP2 / Fold change vs veh, AEBP2 / RFU, SNHG1 /// SNORD22 /// SNORD25 /// SNORD26 /// SNORD27 /// SNORD28 /// SNORD29 /// SNORD31 / Fold change vs veh, SNHG1 /// SNORD22 /// SNORD25 /// SNORD26 /// SNORD27 /// SNORD28 /// SNORD29 /// SNORD31 / Fold change (Aza/veh), C12orf56 (ProbeSet 11735607_a_at) / Fold change (ACY-1035/veh), C12orf56 (ProbeSet 11735607_a_at) / Fold change (Aza/veh), FGFR1OP (ProbeSet 11751329_s_at) / Fold change (ACY-1035/veh), FGFR1OP (ProbeSet 11751329_s_at) / Fold change (Aza/veh), VPS36 (ProbeSet 11739960_a_at) / Fold change (ACY-1035/veh), VPS36 (ProbeSet 11739960_a_at) / RFU SYPL1 (11715823_x_at) / Fold change /veh SYPL1 (11715823_x_at) / RFU IGFBP7 (11715501_s_at) / Fold change /veh IGFBP7 (11715501_s_at) / RFU REEP3 (11722064_at) / Fold change /veh REEP3 (11722064_at) / RFU IGLL1 (11728026_x_at) / Fold change /veh IGLL1 (11728026_x_at): dose or concentration left out as unconfirmed
Details: MV-4-11 cells, 48 hours

Question: For `Nc1ncn([C@@H]2O[C@H](CO)[C@@H](O)[C@H]2O)c(=O)n1` [azacitidine], which “RFU A4GNT (11735810_at)” value is on record?
Answer: 14.85 RFU
